Assay results as given in ChEMBL document CHEMBL1201862, “PubChem BioAssay data set” (2004).
Calls of active or inactive are those of the source.

How the values were obtained:
[1] = target: T1, Oxysterols receptor LXR-beta (Homo sapiens, UniProt P55055); format: functional, cell-based
T1 sequence (P55055 whole entry): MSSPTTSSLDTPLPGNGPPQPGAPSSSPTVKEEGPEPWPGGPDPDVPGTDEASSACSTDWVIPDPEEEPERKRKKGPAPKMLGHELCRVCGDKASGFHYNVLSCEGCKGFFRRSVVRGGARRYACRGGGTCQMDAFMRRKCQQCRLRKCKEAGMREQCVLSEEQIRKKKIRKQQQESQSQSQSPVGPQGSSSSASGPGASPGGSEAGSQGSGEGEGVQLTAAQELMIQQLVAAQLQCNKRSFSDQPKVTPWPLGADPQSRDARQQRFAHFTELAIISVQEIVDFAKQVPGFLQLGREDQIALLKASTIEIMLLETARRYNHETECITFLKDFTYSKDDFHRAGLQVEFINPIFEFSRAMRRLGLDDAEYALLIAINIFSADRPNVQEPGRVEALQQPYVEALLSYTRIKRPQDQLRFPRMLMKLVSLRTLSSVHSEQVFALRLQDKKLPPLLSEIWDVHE

[2] = HIV-1 Vif–A3G interaction blockers – biochemical, TR-FRET, GST-Vif 1-94, biotin-A3G peptide, dose response retest, primary screen (AID 1117319); format: functional;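 also: TR-FRET signal of purified GST-Vif binding a biotinylated A3G peptide; inhibitors lower the FRET signal by blocking Vif and A3G binding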
[3] = Luminescence Cell-Based Dose Response HTS to Identify Activators of Luciferase Translation or Activity in H4 […] Cells. [Related pubchem assays: 1829 (Project Summary), 1814 (Primary HTS)]; format: functional
[4] = Luminescence Cell-Based Dose Confirmation HTS to Identify Activators of 5'UTR Stem-Loop Driven Alpha-Synuclein mRNA Translation in H4 Neuroglioblastoma Cells. [Related pubchem assays: 1829 (Project Summary), 1814 (Primary HTS)]; format: functional
[5] = target: T2, Caspase-3 (Homo sapiens, UniProt P42574); format: functional;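 also: Dose-response selectivity test against caspase-3 for candidate inhibitors of sentrin-specific proteases (SENPs)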
T2 sequence (P42574 whole entry): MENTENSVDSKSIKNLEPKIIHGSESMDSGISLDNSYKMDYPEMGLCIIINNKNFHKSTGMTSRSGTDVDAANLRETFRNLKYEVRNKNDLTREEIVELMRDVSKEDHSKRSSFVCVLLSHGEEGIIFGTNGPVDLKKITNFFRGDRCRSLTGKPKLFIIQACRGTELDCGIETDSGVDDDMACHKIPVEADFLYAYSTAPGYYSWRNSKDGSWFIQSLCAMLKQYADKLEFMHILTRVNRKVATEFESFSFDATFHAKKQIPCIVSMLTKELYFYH

[6] = target: FAD-linked sulfhydryl oxidase ALR (Homo sapiens, UniProt P55789); experiment: ALR-catalysed DTT oxidation blockers – biochemical, H2O2 detection, luminescence, cherry-pick, dose response (AID 493248)
Chain of FAD-linked sulfhydryl oxidase ALR (P55789 whole entry): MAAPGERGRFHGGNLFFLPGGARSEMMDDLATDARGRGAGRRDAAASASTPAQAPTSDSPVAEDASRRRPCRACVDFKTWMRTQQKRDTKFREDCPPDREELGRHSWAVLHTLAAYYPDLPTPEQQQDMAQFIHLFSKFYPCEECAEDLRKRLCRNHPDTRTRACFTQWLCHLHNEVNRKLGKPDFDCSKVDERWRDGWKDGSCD

[7] = target: T3, Sentrin-specific protease 6 (Homo sapiens, UniProt Q9GZR1); format: functional;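 also: Luminescence-based dose-response confirmatory assay of SENP6 inhibition, following up an ultra-high-throughput screen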
T3 sequence (Q9GZR1 whole entry): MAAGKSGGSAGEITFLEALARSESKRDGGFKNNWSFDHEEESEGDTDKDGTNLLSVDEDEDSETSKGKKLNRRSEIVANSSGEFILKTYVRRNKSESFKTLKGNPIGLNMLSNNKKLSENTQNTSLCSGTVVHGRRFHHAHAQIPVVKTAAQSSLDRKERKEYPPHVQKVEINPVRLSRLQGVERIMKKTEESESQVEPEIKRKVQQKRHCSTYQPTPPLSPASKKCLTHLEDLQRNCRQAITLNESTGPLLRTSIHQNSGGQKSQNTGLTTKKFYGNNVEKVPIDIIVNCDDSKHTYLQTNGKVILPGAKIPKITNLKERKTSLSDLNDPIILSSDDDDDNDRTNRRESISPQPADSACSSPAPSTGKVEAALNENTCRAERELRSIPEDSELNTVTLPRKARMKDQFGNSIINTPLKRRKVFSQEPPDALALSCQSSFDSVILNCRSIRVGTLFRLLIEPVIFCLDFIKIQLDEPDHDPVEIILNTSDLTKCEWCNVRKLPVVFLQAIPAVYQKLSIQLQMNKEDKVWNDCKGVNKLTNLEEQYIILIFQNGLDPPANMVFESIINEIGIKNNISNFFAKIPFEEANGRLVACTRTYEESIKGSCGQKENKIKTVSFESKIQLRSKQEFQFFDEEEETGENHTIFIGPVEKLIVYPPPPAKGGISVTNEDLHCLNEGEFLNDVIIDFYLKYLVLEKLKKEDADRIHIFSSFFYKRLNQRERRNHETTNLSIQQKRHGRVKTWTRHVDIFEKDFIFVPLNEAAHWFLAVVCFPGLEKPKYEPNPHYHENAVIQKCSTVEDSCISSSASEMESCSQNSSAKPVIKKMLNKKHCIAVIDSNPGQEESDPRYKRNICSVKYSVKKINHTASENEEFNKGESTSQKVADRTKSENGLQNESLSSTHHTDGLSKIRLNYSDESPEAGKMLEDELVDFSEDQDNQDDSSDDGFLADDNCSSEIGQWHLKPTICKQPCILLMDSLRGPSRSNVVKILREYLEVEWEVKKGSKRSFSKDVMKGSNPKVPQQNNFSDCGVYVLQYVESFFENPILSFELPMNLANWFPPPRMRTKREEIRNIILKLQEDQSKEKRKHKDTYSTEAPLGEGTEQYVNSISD

[8] = target: T4, Sentrin-specific protease 8 (Homo sapiens, UniProt Q96LD8); format: functional;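 also: luminescence read-out of SENP8 inhibition, dose-response confirmation following an ultra-high-throughput screen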
T4 sequence (Q96LD8 whole entry): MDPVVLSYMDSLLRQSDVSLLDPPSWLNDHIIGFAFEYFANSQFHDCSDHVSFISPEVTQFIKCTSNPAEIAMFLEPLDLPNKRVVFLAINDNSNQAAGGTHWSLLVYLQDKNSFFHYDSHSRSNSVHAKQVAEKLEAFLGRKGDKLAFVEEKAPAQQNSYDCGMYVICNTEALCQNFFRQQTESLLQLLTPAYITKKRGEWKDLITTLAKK

[9] = target: T5, Sentrin-specific protease 7 (Homo sapiens, UniProt Q9BQF6); format: functional;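 also: Luminescence-based dose-response confirmation of ultra-high-throughput screening hits, measuring inhibition of SENP7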
T5 sequence (Q9BQF6 whole entry): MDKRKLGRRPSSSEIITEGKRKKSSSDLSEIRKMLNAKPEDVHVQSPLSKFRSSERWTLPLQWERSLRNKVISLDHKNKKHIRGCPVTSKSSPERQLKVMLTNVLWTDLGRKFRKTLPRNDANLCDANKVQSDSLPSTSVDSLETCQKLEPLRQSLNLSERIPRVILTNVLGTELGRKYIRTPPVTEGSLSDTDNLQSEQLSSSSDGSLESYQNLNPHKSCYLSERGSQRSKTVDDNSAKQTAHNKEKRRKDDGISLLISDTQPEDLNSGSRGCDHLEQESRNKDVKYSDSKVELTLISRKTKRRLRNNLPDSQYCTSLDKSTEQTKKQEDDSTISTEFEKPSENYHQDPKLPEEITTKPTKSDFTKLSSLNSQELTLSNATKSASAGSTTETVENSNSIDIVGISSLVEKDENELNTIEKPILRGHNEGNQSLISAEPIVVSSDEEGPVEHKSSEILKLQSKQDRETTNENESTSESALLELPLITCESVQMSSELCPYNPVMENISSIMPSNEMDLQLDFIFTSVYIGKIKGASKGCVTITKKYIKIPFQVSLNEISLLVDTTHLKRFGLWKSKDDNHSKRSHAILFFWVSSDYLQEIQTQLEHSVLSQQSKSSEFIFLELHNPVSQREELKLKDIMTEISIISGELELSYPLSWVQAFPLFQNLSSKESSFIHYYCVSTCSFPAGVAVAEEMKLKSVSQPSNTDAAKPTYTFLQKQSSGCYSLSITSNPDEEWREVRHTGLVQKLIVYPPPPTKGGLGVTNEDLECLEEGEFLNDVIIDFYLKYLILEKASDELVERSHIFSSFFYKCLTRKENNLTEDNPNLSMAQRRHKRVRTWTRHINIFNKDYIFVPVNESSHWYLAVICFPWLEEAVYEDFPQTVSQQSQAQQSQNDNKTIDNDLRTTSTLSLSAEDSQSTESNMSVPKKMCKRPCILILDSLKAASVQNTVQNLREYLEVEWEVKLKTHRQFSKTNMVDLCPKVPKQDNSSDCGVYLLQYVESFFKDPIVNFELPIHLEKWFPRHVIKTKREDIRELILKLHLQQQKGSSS

[10] = target: Cytochrome P450 2C9 (Homo sapiens, UniProt P11712)
Chain of Cytochrome P450 2C9 (P11712 whole entry): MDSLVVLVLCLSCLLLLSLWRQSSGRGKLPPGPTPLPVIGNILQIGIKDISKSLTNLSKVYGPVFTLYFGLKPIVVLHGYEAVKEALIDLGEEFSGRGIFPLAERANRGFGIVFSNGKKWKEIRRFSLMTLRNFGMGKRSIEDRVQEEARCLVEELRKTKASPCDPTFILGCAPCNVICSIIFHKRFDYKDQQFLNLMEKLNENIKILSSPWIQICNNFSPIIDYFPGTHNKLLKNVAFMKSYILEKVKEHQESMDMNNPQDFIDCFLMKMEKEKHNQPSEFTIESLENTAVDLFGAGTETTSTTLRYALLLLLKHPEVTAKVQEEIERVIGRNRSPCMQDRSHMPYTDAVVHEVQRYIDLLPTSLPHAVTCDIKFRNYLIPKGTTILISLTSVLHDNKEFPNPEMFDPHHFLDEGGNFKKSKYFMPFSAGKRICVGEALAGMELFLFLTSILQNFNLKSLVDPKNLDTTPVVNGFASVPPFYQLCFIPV

[11] = target: Cytochrome P450 2C19 (Homo sapiens, UniProt P33261); experiment: Cytochrome panel assay with activity outcomes. Panel member name: p450-cyp2c19 Compounds with AC50 equal or less than 10 uM are considered active; format: functional
Chain of Cytochrome P450 2C19 (P33261 whole entry): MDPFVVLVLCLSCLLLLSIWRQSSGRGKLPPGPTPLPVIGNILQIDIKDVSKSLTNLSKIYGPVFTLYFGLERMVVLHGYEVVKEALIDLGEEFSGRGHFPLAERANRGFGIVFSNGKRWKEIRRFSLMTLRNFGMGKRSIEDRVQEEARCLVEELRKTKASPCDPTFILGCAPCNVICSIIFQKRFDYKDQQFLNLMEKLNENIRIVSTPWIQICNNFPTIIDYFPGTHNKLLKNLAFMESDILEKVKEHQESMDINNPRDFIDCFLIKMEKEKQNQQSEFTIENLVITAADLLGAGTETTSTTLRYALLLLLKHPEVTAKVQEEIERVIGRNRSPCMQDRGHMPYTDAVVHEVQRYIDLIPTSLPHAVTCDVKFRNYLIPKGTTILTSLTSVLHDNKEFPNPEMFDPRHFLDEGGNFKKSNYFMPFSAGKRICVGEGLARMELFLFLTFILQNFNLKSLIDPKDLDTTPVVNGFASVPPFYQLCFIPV

[12] = target: T1, Oxysterols receptor LXR-beta; format: functional, cell-based; remark: listed apart in the source
[13] = cells
[14] = target: Cytochrome P450 2D6 (Homo sapiens, UniProt P10635);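 also: CYP2D6 member of a cytochrome P450 panel assay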
Chain of Cytochrome P450 2D6 (P10635 whole entry): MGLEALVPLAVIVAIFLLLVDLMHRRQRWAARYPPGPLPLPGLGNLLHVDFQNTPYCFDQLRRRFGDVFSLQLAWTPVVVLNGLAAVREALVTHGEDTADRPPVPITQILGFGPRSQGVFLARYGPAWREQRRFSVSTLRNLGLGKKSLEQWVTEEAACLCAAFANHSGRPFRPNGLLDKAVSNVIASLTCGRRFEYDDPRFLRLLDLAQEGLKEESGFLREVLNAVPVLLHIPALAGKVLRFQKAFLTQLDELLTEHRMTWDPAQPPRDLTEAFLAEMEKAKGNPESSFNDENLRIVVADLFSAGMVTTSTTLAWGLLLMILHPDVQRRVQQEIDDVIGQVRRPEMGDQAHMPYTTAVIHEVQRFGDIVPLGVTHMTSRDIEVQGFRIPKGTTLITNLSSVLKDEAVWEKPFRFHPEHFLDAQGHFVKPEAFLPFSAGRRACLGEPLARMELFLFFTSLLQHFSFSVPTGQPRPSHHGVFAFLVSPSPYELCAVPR

[15] = target: T6, Aminopeptidase N (Plasmodium falciparum FcB1/Columbia, UniProt O96935); experiment: malaria alanyl aminopeptidase activity blockers – biochemical, fluorogenic H-Leu-NHMec substrate, 1536-well (AID 1445); parameters: species or system Plasmodium falciparum 3D7, 3D7
T6 sequence (O96935 whole entry): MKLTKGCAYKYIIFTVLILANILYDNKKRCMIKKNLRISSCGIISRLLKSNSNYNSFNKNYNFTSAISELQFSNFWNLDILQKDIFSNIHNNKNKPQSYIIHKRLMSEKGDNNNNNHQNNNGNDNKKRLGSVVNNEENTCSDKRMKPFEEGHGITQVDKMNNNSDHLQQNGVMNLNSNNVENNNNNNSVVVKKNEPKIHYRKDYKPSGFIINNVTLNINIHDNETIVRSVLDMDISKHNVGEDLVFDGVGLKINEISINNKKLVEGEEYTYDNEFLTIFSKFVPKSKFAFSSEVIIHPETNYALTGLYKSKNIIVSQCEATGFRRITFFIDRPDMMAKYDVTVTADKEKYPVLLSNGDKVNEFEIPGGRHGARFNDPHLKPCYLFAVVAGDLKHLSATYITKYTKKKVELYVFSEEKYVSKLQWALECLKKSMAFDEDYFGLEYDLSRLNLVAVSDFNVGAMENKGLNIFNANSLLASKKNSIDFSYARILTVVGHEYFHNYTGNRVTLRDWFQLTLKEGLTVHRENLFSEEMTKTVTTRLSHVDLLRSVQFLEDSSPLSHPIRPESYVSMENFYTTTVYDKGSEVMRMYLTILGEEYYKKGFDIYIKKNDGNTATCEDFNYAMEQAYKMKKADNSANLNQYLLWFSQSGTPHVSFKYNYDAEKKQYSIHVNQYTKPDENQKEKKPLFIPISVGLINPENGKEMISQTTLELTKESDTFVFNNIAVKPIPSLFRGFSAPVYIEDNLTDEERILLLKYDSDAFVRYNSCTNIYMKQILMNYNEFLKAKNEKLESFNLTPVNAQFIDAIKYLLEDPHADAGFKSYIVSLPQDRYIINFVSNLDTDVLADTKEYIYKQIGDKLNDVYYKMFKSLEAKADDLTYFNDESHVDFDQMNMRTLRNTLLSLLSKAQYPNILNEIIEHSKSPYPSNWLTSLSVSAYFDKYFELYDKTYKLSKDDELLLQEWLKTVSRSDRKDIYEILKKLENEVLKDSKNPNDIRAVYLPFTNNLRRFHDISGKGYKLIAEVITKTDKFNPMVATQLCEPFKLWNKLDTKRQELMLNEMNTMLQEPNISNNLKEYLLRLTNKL

[16] = target: T7, Polyadenylate-binding protein 1 (Homo sapiens, UniProt P11940); experiment: MLLE domain peptide-binding blockers, IC50 – biochemical, fluorescence polarization, FITC-PAM2 peptide, dose response (AID 602259); format: functional; conditions: read-out: IC50_Mean
T7 sequence (P11940 whole entry, the tested form may be a part): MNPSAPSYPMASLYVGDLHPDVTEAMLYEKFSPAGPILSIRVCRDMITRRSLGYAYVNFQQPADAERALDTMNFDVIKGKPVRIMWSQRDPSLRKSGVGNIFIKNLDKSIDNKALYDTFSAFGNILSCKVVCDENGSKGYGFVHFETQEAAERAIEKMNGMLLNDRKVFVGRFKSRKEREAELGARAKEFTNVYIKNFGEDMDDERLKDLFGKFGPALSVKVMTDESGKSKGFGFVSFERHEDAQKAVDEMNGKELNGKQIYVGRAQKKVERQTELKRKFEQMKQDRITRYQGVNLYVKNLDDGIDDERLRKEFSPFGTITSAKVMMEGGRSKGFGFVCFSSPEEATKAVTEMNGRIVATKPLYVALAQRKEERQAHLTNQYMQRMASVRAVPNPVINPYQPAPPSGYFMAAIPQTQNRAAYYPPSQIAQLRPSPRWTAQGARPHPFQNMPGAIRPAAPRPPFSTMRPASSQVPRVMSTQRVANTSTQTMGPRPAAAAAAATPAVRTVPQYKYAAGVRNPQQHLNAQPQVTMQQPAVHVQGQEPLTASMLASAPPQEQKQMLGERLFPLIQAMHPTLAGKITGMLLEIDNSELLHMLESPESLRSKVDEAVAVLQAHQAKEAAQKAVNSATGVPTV

[17] = target: T7, Polyadenylate-binding protein 1; experiment: MLLE binding blockers, Cy5 peptide tracer – biochemical, fluorescence polarization, Cy5-PAM2 peptide, secondary, miRNA deadenylation inhibitor project, dose response (AID 602260); format: functional; conditions: read-out: IC50_Mean
[18] = target: Endoplasmic reticulum aminopeptidase 1 (Homo sapiens, UniProt Q9NZ08); experiment: inhibition of human ERAP1 enzyme activity – biochemical, cherry-pick, set 2, plate reader, dose response (AID 743314)
Chain of Endoplasmic reticulum aminopeptidase 1 (Q9NZ08 whole entry): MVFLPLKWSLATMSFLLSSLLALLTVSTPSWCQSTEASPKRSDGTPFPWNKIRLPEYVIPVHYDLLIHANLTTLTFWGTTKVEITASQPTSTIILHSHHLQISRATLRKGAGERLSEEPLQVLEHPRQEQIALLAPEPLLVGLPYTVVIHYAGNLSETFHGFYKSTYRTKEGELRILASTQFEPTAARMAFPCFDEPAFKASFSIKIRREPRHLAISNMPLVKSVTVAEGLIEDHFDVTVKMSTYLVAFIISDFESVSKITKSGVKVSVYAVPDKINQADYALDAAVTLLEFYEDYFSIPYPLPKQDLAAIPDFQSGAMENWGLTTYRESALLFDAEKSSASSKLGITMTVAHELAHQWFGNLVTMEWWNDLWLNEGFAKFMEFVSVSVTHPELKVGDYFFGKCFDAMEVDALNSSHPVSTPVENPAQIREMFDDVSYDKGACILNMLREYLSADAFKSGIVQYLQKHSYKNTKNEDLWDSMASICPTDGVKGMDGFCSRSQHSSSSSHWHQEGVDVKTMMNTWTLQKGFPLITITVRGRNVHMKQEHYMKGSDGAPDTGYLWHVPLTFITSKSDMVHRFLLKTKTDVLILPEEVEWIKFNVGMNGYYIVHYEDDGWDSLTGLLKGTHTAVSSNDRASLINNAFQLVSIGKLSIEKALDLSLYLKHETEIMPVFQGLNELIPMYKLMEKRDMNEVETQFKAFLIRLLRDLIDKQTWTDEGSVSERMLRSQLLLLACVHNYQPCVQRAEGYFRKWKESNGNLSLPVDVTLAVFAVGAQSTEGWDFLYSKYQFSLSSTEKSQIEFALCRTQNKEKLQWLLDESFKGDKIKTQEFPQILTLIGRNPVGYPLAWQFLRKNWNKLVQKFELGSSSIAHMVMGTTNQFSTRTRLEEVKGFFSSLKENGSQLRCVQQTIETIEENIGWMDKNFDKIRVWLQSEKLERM

[19] = toxicity toward HepG2 liver cells – cell-based, plate reader, cherry-pick, antagonist series, cytotoxicity control, dose response (AID 743416); format: functional
[20] = viability loss in HEK293 cells – cell-based, plate reader, cherry-picked samples, cytotoxicity control, dose response (AID 743446); format: functional
[21] = blockers of bursicon-stimulated LGR2 cAMP reporter – cell-based, HEK293, CRE-luciferase reporter, cherry pick, set 2, dose response (AID 743343); format: functional;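 also: transfected cells were stimulated with diluted bursicon conditioned medium after compound addition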
[22] = blockade of melanocortin 4 receptor signaling – cell-based, plate reader, cherry pick, counter-screen for LGR2 antagonist project, dose response (AID 743444); format: functional;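 also: transfected HEK 293 cells stimulated with alpha-MSH peptide; potency of inhibitors of the alpha-MSH evoked signal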
[23] = A549 cell cytotoxicity, dose response, cytotoxicity control, plate reader, cherry-pick, antagonist series (AID 743412); format: functional, cell-based

## CCCS(=O)(=O)NCc1cn2c(C)csc2n1
[1]
  EC50: > 67.5 µM (inactive)
[2]
  IC50: > 100 µM (active)
[3]
  EC50: 12.6 µM (active)
[4]
  EC50: 6.17 µM (active)

## Cc1cccc(N=Nc2cnc(N)s2)c1
[5]
  IC50: 34.5 µM (active)
[6]
  AC50: 1.29 µM (active)
[1]
  EC50: > 67.6 µM (inactive)
[7]
  IC50: 25.8 µM (active)
[8]
  IC50: 19.1 µM (active)
[9]
  IC50: 9.64 µM (active)

## Cn1cc(-c2nnc(-c3ccccc3)o2)c2ccccc21
[10]
  AC50: inconclusive
[11]
  AC50: inconclusive
[12]
  EC50: > 67.5 µM (inactive)
[13]
  EC50: > 67.5 µM (inactive)
[14]
  AC50: 3.55 µM (inconclusive)

## CCN(CC)Cc1c(O)c(Cl)cc2c(C)cc(=O)oc12
[15]
  IC50: 48.6 µM (active)
[16]
  IC50: 39.1 µM (inactive)
[17]
  IC50: > 66 µM (inactive)
[18]
  AC50: 4.88 µM (active)

## OCc1cccc(-c2cnc3c(Nc4cccc(OC(F)(F)C(F)F)c4)nccn23)c1
[19]
  AC50: 41.7 µM (active)
[20]
  AC50: > 52 µM (inactive)
[21]
  AC50: 23.8 µM (active)
[22]
  AC50: 26.8 µM (active)
[23]
  AC50: 43.3 µM (active)

## CC(C)(C)c1ccc(Nc2[nH]nc3ccccc23)cc1
[12]
  EC50: > 67.6 µM (inactive)
[13]
  EC50: > 67.6 µM (inactive)

## N#C[C@H]1[C@H](c2ccc(C#Cc3ccccc3F)cc2)[C@H](CO)N1C(=O)C1CC1
[19]
  AC50: 34.7 µM (active)
[20]
  AC50: 15.4 µM (active)
[21]
  AC50: 16.4 µM (active)
[22]
  AC50: 12.8 µM (active)
[23]
  AC50: 23.9 µM (active)

## COC(=O)[C@H]1[C@H](CO)[C@H]2Cn3c(ccc(/C=C/c4ccccc4)c3=O)[C@@H]1N2CC1CCCC1
[18]
  AC50: 11.9 µM (active)

## CCCN1[C@@H]2c3ccc(/C=C/c4ccccc4)c(=O)n3C[C@H]1[C@H](CO)[C@H]2C(=O)NCc1ccccn1
[18]
  AC50: 6.65 µM (active)
